Assay results from patent US5863913A, “Aromatic compound and pharmaceutical composition” (Kureha Chemical Industry Co., Ltd., priority 1996, dated 1999).

Legend:
[1] = Oral absorption (amount of compound in rat serum by HPLC, area under curve); format: in vivo, Sprague-Dawley female rats; details: single dosage 160 mg/kg in water, 0.5 to 24 hours, average of 3 rats
Experimental: Twelve-week-old Sprague-Dawley female rats (3 rats per group) were bred for acclimation for a week. Then, the compounds of the present invention and a reference substrate were dissolved in water, and orally administered to the rats in a single dosage (160 mg/kg). After 0.5 hour, 1 hour, 2 hours, 4 hours, 6 hours, 8 hours, and 24 hours, the amounts of each compound (ng) per 1 ml of serum were measured using HPLC. Curves were obtained from the relation between an elapsed time after administration and the amount of the compound in serum at each elapsed time, respectively, and an average of the areas under the curves was calculated.
As a reference substance, Compound No. 184 disclosed in Japanese Unexamined Patent Publication (Kokai) No. 8-48651 was used. Compound No. 184 corresponds to the compound of the formula (I) wherein R^1 =nBu, A=N, Z=C, R^2 =CO, R^3 =NC4 H8 O, R^4 =H, R^5 =Me, and R^6 =Me.

[2] = target: T1, angiotensin II receptor subtype 2 (AT2) (Bos taurus, UniProt G5E6F7); experiment: Binding to receptors: angiotensin II receptor subtype 2 (AT2); details: bovine cerebellar cortex, tracer 125I-Tyr4-angiotensin II
T1 construct: receptor : from cerebellar cortex in bovine; from tissue; host or cells: bovine cerebellar cortex
T1 sequence (G5E6F7 1-362): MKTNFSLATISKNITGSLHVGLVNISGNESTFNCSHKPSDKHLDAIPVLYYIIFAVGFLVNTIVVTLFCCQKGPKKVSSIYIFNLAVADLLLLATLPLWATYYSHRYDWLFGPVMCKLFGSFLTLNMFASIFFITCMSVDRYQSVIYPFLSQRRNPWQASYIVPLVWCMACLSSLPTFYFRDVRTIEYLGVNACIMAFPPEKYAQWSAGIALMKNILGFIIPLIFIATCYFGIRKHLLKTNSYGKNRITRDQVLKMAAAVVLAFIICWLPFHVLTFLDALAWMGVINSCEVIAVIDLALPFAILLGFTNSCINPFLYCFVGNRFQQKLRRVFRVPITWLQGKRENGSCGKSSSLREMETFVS
Experimental: In this Example, the affinity to the angiotensin II receptor subtype 1 or subtype 2 was evaluated by a binding assay in accordance with the method described in Biochem. Pharmacol., 33, 4057-4062 (1984).
Specifically, the measurement of the total binding in the presence of each drug was performed as follows:
A mixture (final volume=0.25 ml) of a drug in a given concentration (the drug was dissolved in DMSO, and diluted to a double volume with a buffer attached to a drug discovery system to prepare a sample for the assay; 0.025 ml), a tracer (0.025 ml), and receptors (0.2 ml) was incubated [in the case of the angiotensin II receptor subtype 1 (AT1), at room temperature for 3 hours, and in the case of the subtype 2 (AT2), at 37° C. for 1 hour]. Then, the reaction mixture was filtered with suction (GF/C filter was used in AT1, and GF/B filter was used in AT2). The filter papers after filtration with suction (the tracer bound to the receptors) were counted by a γ-well counter (ARC-500, Aloka). The non-specific bindings were measured by repeating the above method, except that a large excess amount of a displacer was added. The specific binding of the drug in the given concentration was calculated by subtracting the non-specific binding from the total binding, respectively.
In AT1 and AT2, the percentages found to inhibit the bindings of radioactive ligands (tracer) to receptors by the drugs to be tested (IC50 value of concentration to show 50% inhibition, or binding inhibition % in 100 μM) were measured, using the drugs to be tested and control drugs in the given concentration.
receptor : from cerebellar cortex in bovine
tracer : ^125 ITyr^4angiotensin II
control drug : angiotensin II (human)
(displacer) : angiotensin II (human)

| Structure (SMILES) | AUC at 24 h [1] [ng·h/mL] | inhibition at 100 µM [2] [%] |
| --- | --- | --- |
| CCCCCCC(=O)N(Cc1ccc(C(=O)O)cc1)c1cc(C(=O)N2CCN(C)CC2)ccc1N(C)C [Compound No. 13, 3-[[(4-carboxyohenyl)methyl]n-heptanamido]-4-dimethylaminobenzoic acid 4'-methylpiperazide] | 1460 | 0 |
| CCCCC(=O)N(Cc1ccc(C(=O)OCCCN)cc1)c1cc(C(=O)N2CCOCC2)ccc1N(C)C [Compound No. 3, 3-N-[[[4-(3'-aminopropoxycarbonyl)phenyl]methyl]valeramido]-4-dimethylaminobenzoic acid morpholide] | 9530 | 0 |
| CCCCCCC(=O)N(Cc1ccc(C(=O)O)cc1)c1cc(C(=O)N2CCN(C)CC2)ccc1C(C)C [Compound No. 18, 3-N-[[(4-carboxyphenyl)methyl]n-heptanamido]-4-i-propylbenzoic acid 4'-methylpiperazide] | 12800 | 9 |
| CCCCC(=O)N(Cc1ccc(C(=O)O)cc1)c1cc(C(=O)N2CCN(CCC)CC2)ccc1C(C)C [Compound No. 19, 3-[[(4-carboxyphenyl)methyl]valeramido]-4-i-propylbenzoic acid 4'-n-propylpiperazide] | 172000 | 18 |
| CCCCC(=O)N(Cc1ccc(C(=O)OCCN(C)C)cc1)c1cc(C(=O)N2CCOCC2)ccc1N(C)C [Compound No. 1, 4-dimethylamino-3-N-[[[4-(2'-dimethylaminoethoxycarbonyl)phenyl]methyl]valeramido]benzoic acid morpholide] | 13900 | 16 |
| CCCCCCC(=O)N(Cc1ccc(C(=O)O)cc1)c1cc(C(=O)N2CCN(CCC)CC2)ccc1N(C)C [Compound No. 12, 4-dimethylamino-3-N-[[(4-carboxyphenyl)methyl]n-heptanamido]benzoic acid 4'-n-propyl piperazide] | 32200 | 0 |
| CCCCC(=O)N(Cc1ccc(C(=O)OCCN(C)C)cc1)c1cc(C(=O)N2CCOCC2)ccc1C(C)C [Compound No. 6, 3-N-[[[4-(2'-dimethylaminoethoxycarbonyl)phenyl]methyl]valeramido]-4-i-propylbenzoic acid morpholide] | 34700 | 21 |
| CCCCC(=O)N(Cc1ccc(C(=O)OCCCN(C)C)cc1)c1cc(C(=O)N2CCOCC2)ccc1C(C)C [Compound No. 7, 3-N-[[[4-(3'-dimethylamino-1'-propoxycarbonyl)phenyl]methyl]valeramido]-4-i-propylbenzoic acid morpholide] | 14000 | 0 |
| CCCCC(=O)N(Cc1ccc(C(=O)O)cc1)c1cc(C(=O)N2CCN(C)CC2)ccc1C(C)C [Compound No. 15, 3-[[(4-carboxyphenyl)methyl]valeramido]-4-i-propylbenzoic acid 4'-methylpiperazide] | 5670 | 0 |
| CCCCC(=O)N(Cc1ccc(C(=O)OCCN2CCOCC2)cc1)c1cc(C(=O)N2CCOCC2)ccc1C(C)C [Compound No. 9, 3-N-[[[4-(2'-morpholinoethoxycarbonyl)phenyl]methyl]valeramido]-i-propylbenzoic acid morpholide] | 50300 | 0 |
| CCCCCCC(=O)N(Cc1ccc(C(=O)O)cc1)c1cc(C(=O)N2CCN(CCC)CC2)ccc1C(C)C [Compound No. 20, 3-N-[[(4-carboxyphenyl)methyl]n-heptanamido]-4-i-propylbenzoic acid 4'-n-propylpiperazide] | 183000 | 0 |
| CCCCC(=O)N(Cc1ccc(C(=O)OCCCN(C)C)cc1)c1cc(C(=O)N2CCOCC2)ccc1N(C)C [Compound No. 2, 4-dimethylamino-3-N-[[[4-(3'-dimethylaminopropoxycarbonyl)phenyl]methyl]valeramido]benzoic acid morpholide] | 10700 | 0 |
| CCCCC(=O)N(Cc1ccc(C(=O)OCCN(CC)CC)cc1)c1cc(C(=O)N2CCOCC2)ccc1C(C)C [Compound No. 8, 3-N-[[[4-(2'-diethylaminoethoxycarbonyl)phenyl]methyl]valeramido]-4-i-propylbenzoic acid morpholide] | 24600 | 0 |
